Reference: patent publication US5849776A, “Medicaments based on metronidazole or on a synergic mixture of metronidazole and clindamycin” (Centre International de Recherches Dermatologiques Galderma …, priority 1994, dated 1998)
“Also recorded” adds a separate entry of the source.

Columns and labels:
[1] = tested on: oedema of the ear of the mouse induced by topical application of arachidonic acid; experiment: oedema of the ear of the mouse induced by topical application of arachidonic acid (in vivo topical anti-inflammatory activity); details: for % Inhibition of the oedema After 1 h: 1 h after arachidonic acid; for % Inhibition of the oedema After 1 h / % Inhibition of the oedema After 2 h: each active 2% in acetone solution, topical, 25 μl twice daily for 4 days plus last application 2 h before arachidonic acid, vs other ear pretreated with acetone only; for % Inhibition of the oedema After 2 h: 2 h after arachidonic acid; for anti-inflammatory activity (in words): in vivo topical application
Source text: The test used to evaluate this activity is that of oedema of the ear of the mouse induced by topical application of arachidonic acid. According to this model, the topical application of arachidonic acid to the ear causes an inflammation which is characterized by the rapid development of an oedema, the latter becoming maximum at the end of one hour after application. The oedematous response is then quantified by measuring the thickness of the ear.
The exact operating protocol is the following: the mice are first of all pretreated with the active product(s) to be evaluated, two topical applications per day (2×25 μl; one application in the morning and the other in the evening) being carried out on one of their ears of an acetone solution containing, at a given concentration, this or these active principle(s); this pretreatment is carried out for four consecutive days. Then, on the fifth day, the mice receive a last application (25 μl) of the solution containing the active principle(s) to be tested, which takes place two hours before the application to the ear thus pretreated of the arachidonic acid intended to produce the oedema (25 μl of a THF/methanol solution containing 4 weight % of arachidonic acid). The oedematous response is then quantified by measuring the thickness of the ear 1 hour and 2 hours after application of the arachidonic acid solution.

[2] = tested on: oedema of the ear of the mouse induced by topical application of arachidonic acid; details: conventional agents, general statement on the model; cited from earlier work

Row | Structure (SMILES) | % Inhibition of the oedema After 1 h [1] | % Inhibition of the oedema After 2 h [1] | anti-inflammatory activity (in words) [1] | inhibition in this model (in words) [2]
1 | CCC[C@@H]1C[C@@H](C(=O)N[C@@H]([C@H]2O[C@H](SC)[C@H](O)[C@@H](O)[C@H]2O)[C@H](C)Cl)N(C)C1 [Clindamycin] | (ni) | (ni) | does not, by itself, have any significant activity; also recorded: no, or substantially no, anti-inflammatory activity | 
2 | Cc1ncc([N+](=O)[O-])n1CCO [Metronidazole, 2-methyl-5-nitroimidazole-1-ethanol] | 20% | 36% | good anti-inflammatory activity after in vivo topical application | 
3 | COc1ccc2c(c1)c(CC(=O)O)c(C)n2C(=O)c1ccc(Cl)cc1 [indomethacin] |  |  |  | good inhibitors in this model
4 | COc1ccc2cc([C@H](C)C(=O)O)ccc2c1 [naproxen] |  |  |  | good inhibitors in this model
5 | CCCCC1C(=O)N(c2ccccc2)N(c2ccccc2)C1=O [phenylbutazone] |  |  |  | good inhibitors in this model
